Source: patent US20060293362A1, “Nitro-substituted hydroxyindoles, their use as inhibitors of phosphodiesterase 4, and processes for preparing them” (priority 2005, published 2006)

Assays:
PDE 4 = test: Inhibition of phosphodiesterase 4 (SPA assay, enzyme preparation from human PMNLs); format: biochemical; details: cytosolic PDE 4 fraction from human PMNLs; 0.5 μM [3H]-cAMP; 100 μM cGMP
Protocol: The PDE 4 activity is determined using enzyme preparations from human […] (PMNLs). Human blood (buffy coats) was anticoagulated with citrate. The platelet-rich plasma in the supernatant is separated from the erythrocytes and leucocytes by centrifuging at 700 […]g for 20 minutes at room temperature (RT). The PMNLs for the PDE 4 determination are isolated by means of a subsequent dextran sedimentation followed by a gradient centrifugation using Ficoll-Paque. After the cells have been washed twice, the erythrocytes which are still present are lysed within 6 minutes by adding 10 ml of hypotonic buffer (155 mM NH4Cl, 10 mM NaHCO3, 0.1 mM EDTA, pH=7.4) at 4° C. The PMNLs, which are still intact, are washed a further two times with PBS and lysed by ultrasonication. The supernatant obtained after centrifuging at 48 000×g at 4° C. for one hour contains the cytosolic PDE 4 fraction and is used for the PDE 4 measurements.
The phosphodiesterase activity is measured using a modified Amersham Pharmacia Biotech method, i.e. an SPA (scintillation proximity assay) assay. The reaction mixtures contain buffer (50 mM tris-HCl (pH 7.4), 5 mM MgCl2, 100 μM cGMP), varying concentrations of the inhibitors, and the corresponding enzyme preparation. The reaction is started by adding the substrate, i.e. 0.5 μM [3H]-cAMP. The final volume is 100 μl. Test substances are prepared as stock solutions in DMSO. The concentration of DMSO in the reaction mixture is 1% v/v. This DMSO concentration has no effect on PDE activity. After the reaction has been started by adding the substrate, the samples are incubated at 37° C. for 30 minutes. The reaction is stopped by adding a defined quantity of SPA beads and the samples are measured in a beta counter after one hour. The nonspecific enzyme activity (i.e. the blank) is determined in the presence of 100 μM rolipram and subtracted from the test values. The incubation mixtures for the PDE 4 assay contain 100 μM cGMP in order to inhibit any contamination of PDE 3 which may be present.

[1] = test system: pulmonary eosinophil infiltration; test: Inhibition of late-phase eosinophilia 48 h after inhalative ovalbumin challenge in actively sensitized Brown Norway rats; format: in vivo; details: 2 h prior to allergen challenge, BAL 48 h after challenge
Protocol: The inhibition exerted by the substances according to the invention on pulmonary eosinophil infiltration is examined in male Brown Norway rats (200-250 g) which have been actively sensitized against ovalbumin (OVA). The sensitization is effected by subcutaneously injecting a suspension of 10 μg of OVA, together with 20 mg of aluminium hydroxide as adjuvant, in 0.5 ml of physiological sodium chloride solution per animal on days 1, 14 and 21. In addition to this, each of the animals is injected at the same time with 0.25 ml of Bordetalla pertussis vaccine dilution i.p. On the 28th day of the experiment, the animals are placed individually in open 11 Plexiglass boxes which are connected to a head/nose exposure appliance. The animals are exposed to an aerosol consisting of a 1.0% suspension of ovalbumin (Allergen Challenge). The ovalbumin aerosol is generated using a compressed air (0.2 MPa)-driven nebulizer (Bird micro nebulizer, Palm Springs Calif., USA). The exposure time is 1 hour, with normal controls likewise being nebulized for 1 hour with an aerosol consisting of a 0.9% solution of sodium chloride.
48 hours after the allergen challenge, there is a massive immigration of eosinophilic granulocytes into the lungs of the animals. At this time, the animals are anaesthetized with an overdose of ethylurethane (1.5 g/kg of body weight, given i.p.) and a bronchoalveolar lavage (BAL) is carried out using 3×4 ml of Hank's balance solution. The total cell count, and the number of eosinophilic granulocytes, in the pooled BAL liquid are then determined using an automatic haemocytometer (Bayer Diagnostics Technicon H1E). For each animal, the eosinophils (EOS) in the BAL are calculated in 10^6/animal: EOS/μl×BAL recovery (ml)=EOS/animal. Two control groups (nebulization with physiological sodium chloride solution and nebulization with OVA solution) are included in each test.
The percentage inhibition of the eosinophilia in the substance-treated experimental group is calculated using the following formula: {((OVAC−SC)−(OVAD−SC))/(OVAC−SC)}×100%=% inhibition
(SC=control group treated with vehicle and challenged with 0.9% sodium chloride solution; OVAC=control group treated with vehicle and challenged with 1% of ovalbumin suspension; OVAD=experimental group treated with substance and challenged with 1% of ovalbumin suspension)
The test substances are administered 2 hours prior to the allergen challenge intraperitoneally or orally as a suspension in 10% polyethylene glycol 300 and 0.5% 5-hydroxyethyl cellulose or per inhalation as a mixture with lactose. The control groups are treated with the vehicle in accordance with the manner in which the test substance is administered.

[2] = test system: pulmonary neutrophil infiltration; test: Inhibition of lipopolysaccharide (LPS)-induced pulmonary neutrophilia in Lewis rats; format: in vivo; details: 2 h prior to LPS provocation, BAL 6 h after provocation
Protocol: The ability of the substances according to the invention to inhibit pulmonary neutrophil infiltration is examined in male Lewis rats (200-350 g). On the day of the experiment, the animals are placed individually in open 1 l Plexiglass boxes which are connected to a head/nose exposure appliance. The animals are exposed to an aerosol consisting of a suspension of lipopolysaccharide (100 μg of LPS/ml of 0.1% hydroxylamine solution) in PBS (LPS provocation). The LPS/hydroxylamine aerosol is generated using a compressed air (0.2 MPa)-driven nebulizer (Bird micro nebulizer, Palm Springs Calif., USA). The exposure time is 40 minutes, with normal controls likewise being nebulized for 40 minutes with an aerosol consisting of a 0.1% solution of hydroxylamine in PBS.
6 hours after the LPS provocation, there is a maximal and massive immigration of neutrophilic granulocytes into the lungs of the animals. At this time, the animals are anaesthetized with an overdose of ethylurethane (1.5 g/kg of body weight, given i.p.) and a bronchoalveolar lavage (BAL) is carried out using 3×4 ml of Hank's balance solution. The total cell count, and the number of neutrophilic granulocytes, in the pooled BAL liquid are then determined using an automatic haemocytometer (Bayer Diagnostics Technicon H1E). In the case of each animal, the neutrophils (NEUTRO) in the BAL are calculated in 10^6/animal: NEUTRO/μl×BAL recovery (ml)=NEUTRO/animal.
Two control groups (nebulization with a 0.1% hydroxylamine solution in PBS and nebulization with 100 μg of LPS/ml of 0.1% hydroxylamine solution in PBS) are included in each test. The percentage inhibition of the neutrophilia in the substance-treated experimental group is calculated using the following formula: {((LPSC−SC)−(LPSD−SC))/(LPSC−SC)}×100%=% inhibition
SC=control group treated with vehicle and challenged with 0.1% hydroxylamine solution; LPSC=control group treated with vehicle and challenged with LPS (100 μg/ml of 0.1% hydroxylamine solution); LPSD=experimental group treated with substance and challenged with LPS (100 μg/ml of 0.1% hydroxylamine solution)
The test substances are administered 2 hours prior to the LPS provocation, as a suspension in 10% polyethylene glycol 300 and 0.5% 5-hydroxyethyl cellulose orally or per inhalation as a mixture with lactose. The control groups are treated with the vehicle in accordance with the mode of administration used for the test substance.

Cc1c(Cn2cc(C(=O)C(=O)Nc3c(Cl)cncc3Cl)c3cccc(O)c32)cccc1[N+](=O)[O-] [Compound 4, N-(3,5-dichloropyridine-4-yl)-[7-hydroxy-1-(2-methyl-3-nitrobenzyl)-indol-3-yl]-glyoxylic acid amide]
IC50 (PDE 4): 2 nM | melting point: 229 to 232 °C (dec.)

O=C(Nc1c(Cl)cncc1Cl)C(=O)c1cn(Cc2c(F)cccc2F)c2c(O)cccc12 [Comparative Compound B, N-(3,5-dichloropyridin-4-yl)[1-(2,6-difluorobenzyl)-7-hydroxyindol-3-yl] glyoxylic acid amide]
IC50 (PDE 4): 2 nM | Inhibition of eosinophilia ([1]; 0.01 mg/kg i.t.): no effect | Inhibition of eosinophilia ([1]; 0.1 mg/kg i.t.): 35% | Inhibition of eosinophilia ([1]; 10 mg/kg i.p.): 38% | Inhibition of eosinophilia ([1]; 30 mg/kg p.o.): 30% | Inhibition of neutrophilia ([2]; 0.01 mg/kg i.t.): no effect | Inhibition of neutrophilia ([2]; 0.1 mg/kg i.t.): 38% | Inhibition of neutrophilia ([2]; 1 mg/kg p.o.): 31%

O=C(Nc1c(Cl)cncc1Cl)C(=O)c1cn(Cc2ccc(Cl)cc2[N+](=O)[O-])c2c(O)cccc12 [Compound 1, N-(3,5-dichloropyrdin-4-yl)-[1-(4-chloro-2-nitrobenzyl)-7-hydroxyindol-3-yl]glyoxylic acid amide]
IC50 (PDE 4): 0.9 nM | Inhibition of eosinophilia ([1]; 0.001 mg/kg i.t.): 55% | Inhibition of eosinophilia ([1]; 10 mg/kg i.p.): 57% | Inhibition of eosinophilia ([1]; 30 mg/kg p.o.): 51% | Inhibition of neutrophilia ([2]; 0.001 mg/kg i.t.): 51% | Inhibition of neutrophilia ([2]; 1 mg/kg p.o.): 49%

O=C(Nc1c(Cl)cncc1Cl)C(=O)c1cn(Cc2c(F)cccc2[N+](=O)[O-])c2c(O)cccc12 [Compound 2, N-(3,5-dichloropyridine-4-yl)[1-(6-fluoro-2-nitrobenzyl)-7-hydroxyindole-3-yl)glyoxylic acid amide]
IC50 (PDE 4): 0.6 nM | melting point: 308 to 310 °C

O=C(Nc1c(Cl)cncc1Cl)C(=O)c1cn(Cc2ccccc2Cl)c2c(O)cccc12 [Comparative Compound C, (N-3,5-dichloropyridin-4-yl)[1-(2-chlorobenzyl)-7-hydroxyindol-3-yl] glyoxylic acid amide]
IC50 (PDE 4): 0.6 nM | Inhibition of eosinophilia ([1]; 0.01 mg/kg i.t.): no effect | Inhibition of eosinophilia ([1]; 0.1 mg/kg i.t.): 62% | Inhibition of eosinophilia ([1]; 10 mg/kg i.p.): 30% | Inhibition of eosinophilia ([1]; 30 mg/kg p.o.): 32% | Inhibition of neutrophilia ([2]; 0.01 mg/kg i.t.): no effect | Inhibition of neutrophilia ([2]; 0.1 mg/kg i.t.): 31% | Inhibition of neutrophilia ([2]; 1 mg/kg p.o.): 34%

O=C(Nc1c(Cl)cncc1Cl)C(=O)c1cn(Cc2cccc([N+](=O)[O-])c2)c2c(O)cccc12 [Comparative Compound A]
IC50 (PDE 4): 2 nM | Inhibition of eosinophilia ([1]; 0.1 mg/kg i.t.): no effect | Inhibition of eosinophilia ([1]; 10 mg/kg i.p.): 33% | Inhibition of eosinophilia ([1]; 30 mg/kg p.o.): 31% | Inhibition of neutrophilia ([2]; 0.1 mg/kg i.t.): no effect | Inhibition of neutrophilia ([2]; 1 mg/kg p.o.): 39%

Cc1ccc(Cn2cc(C(=O)C(=O)Nc3c(Cl)cncc3Cl)c3cccc(O)c32)cc1[N+](=O)[O-] [Compound 3, N-(3,5-dichloropyridine-4-yl)-[7-hydroxy-1-(4-methyl-3-nitrobenzyl)-indol-3-yl]-glyoxylic acid amide]
IC50 (PDE 4): 8 nM

O=C(Nc1c(Cl)c[n+]([O-])cc1Cl)C(=O)c1cn(Cc2ccc(Cl)cc2[N+](=O)[O-])c2c(O)cccc12 [Compound 6, N-(3,5-dichloro-1-oxo-pyridine-4-yl)-[1-(4-chloro-2-nitrobenzyl)-7-hydroxyindol-3-yl]-glyoxylic acid amide]
IC50 (PDE 4): 4 nM

Cc1ccc([N+](=O)[O-])c(Cn2cc(C(=O)C(=O)Nc3c(Cl)cncc3Cl)c3cccc(O)c32)c1 [Compound 5, N-(3,5-dichloropyridine-4-yl)-[7-hydroxy-1-(5-methyl-2-nitrobenzyl)-indol-3-yl]-glyoxylic acid amide]
IC50 (PDE 4): 38 nM | melting point: 297 to 300 °C (dec.)
